The nature of assay [1]: (§1) In vitro inhibitory activity against Adenosine diphosphate (ADP) induced rabbit platelet aggregation. In kind it is functional, Oryctolagus cuniculus.
The species entered for assay [2] is Oryctolagus cuniculus. As to the kind of experiment: In vitro inhibitory activity against collagen induced rabbit platelet aggregation. Type of assay: functional.
Assay [3] deals with Rattus norvegicus. Briefly: In vivo anti-hyperplastic activity was evaluated by the inhibition of balloon injury model in rats at a dose of 30 mg/kg (p.o.). In kind it is functional. The note with it: for inhibition in vivo at 30 mg/kg: Rattus norvegicus, po.
The test system of assay [4] is Mus musculus. As to the kind of experiment: In vivo anti-thrombotic activity was evaluated by the inhibition of pulmonary thromboembolism model in mice at a dose of 30 mg/kg (p.o.). The settings on record: route oral. Type of assay: functional.
The test system of assay [5] is Mus musculus. Briefly: In vivo anti-thrombotic activity was evaluated by the inhibition of pulmonary thromboembolism model in mice at a dose of 10 mg/kg (p.o.). Type of assay: functional. The settings on record: route oral.
For assay [6], the system named is Rattus norvegicus. As to the kind of experiment: In vivo anti-hyperplastic activity was evaluated by the inhibition of balloon injury model in rats at a dose of 10 mg/kg (p.o.). In kind it is functional. The settings on record: route oral.
The species named for assay [7] is Oryctolagus cuniculus. Described as §1. Type of assay: functional.

For orientation: IC50 means the concentration needed to halve the response being measured. A higher IC50 goes with lower potency. As usually defined, the inhibition in vivo is the share of the control response that was lost under treatment. The low end stands for a response near the control, the high end for a response far below the control. As to `O=C(NCCCOc1ccc2nc(O)ccc2c1)N(C1CCCCCC1)[C@H]1CCCC[C@@H]1O`, the IC50 amounted to 0.12 µM in assay [1] (Oryctolagus cuniculus) and 0.03 µM in assay [2] (Oryctolagus cuniculus). For the same compound, the inhibition in vivo at 30 mg/kg in assay [3] was found to be 11%; in assay [4], 69%.

`O=C(NCCCOc1ccc2nc(O)ccc2c1)N(C1CC1)[C@H]1CCCC[C@@H]1O`: the inhibition in vivo at 10 mg/kg was 29% in assay [5] and 1% in assay [6]. In addition, the figures for the IC50 in assay [1] (Oryctolagus cuniculus) and in assay [2] (Oryctolagus cuniculus) were 2.4 µM and 2.2 µM, respectively. Further, the figures for the inhibition in vivo at 30 mg/kg in assay [3] and in assay [4] were 13% and 100%, respectively.

Turning to `O=C(NCCCOc1ccc2nc(O)ccc2c1)N(C1CC1)[C@@H]1CCC[C@H]1O`, the IC50 is 2.5 µM in assay [1] (Oryctolagus cuniculus) and 3.5 µM in assay [2] (Oryctolagus cuniculus). In addition, the inhibition in vivo at 30 mg/kg in assay [3] stood at 23%; in assay [4], 67%.

Take `CCN(CCCOc1ccc2nc(O)ccc2c1)C(=O)N(C)C1CCCCC1`: the IC50 in assay [1] (Oryctolagus cuniculus) was found to be 15 µM; in assay [2] (Oryctolagus cuniculus) it was 16 µM. Besides, the inhibition in vivo at 30 mg/kg is 12% in assay [3] and 58% in assay [4].

For `O=C(NCCCOc1ccc2nc(O)ccc2c1)N(C1CC1)[C@H]1CCCC[C@H]1O`, the IC50 in assay [1] (Oryctolagus cuniculus) amounted to 2.3 µM; in assay [2] (Oryctolagus cuniculus), 3.3 µM. In addition, the results for the inhibition in vivo at 30 mg/kg in assay [3] and in assay [4] were 19% and 100%, respectively.

For `CCCCO[C@H]1CCCC[C@@H]1N(C(=O)NCCCOc1ccc2nc(O)ccc2c1)C1CC1`, the IC50 stood at 0.71 µM in assay [1] (Oryctolagus cuniculus) and 3.5 µM in assay [2] (Oryctolagus cuniculus). Moreover, the results for the inhibition in vivo at 30 mg/kg in assay [3] and in assay [4] were 19% and 33%, respectively.

Consider `O=C(NCCCOc1ccc2nc(O)ccc2c1)N(C1CC1)[C@@H]1CCC[C@@H](O)C1`, for which the IC50 in assay [1] (Oryctolagus cuniculus) came to 3 µM; in assay [2] (Oryctolagus cuniculus), 2.8 µM. Moreover, the inhibition in vivo at 30 mg/kg came out at 0% in assay [3] and 20% in assay [4].

`O=C(NCCCOc1ccc2nc(O)ccc2c1)N(C1CCCCCCC1)[C@H]1CCCC[C@@H]1O`: the IC50 in assay [1] (Oryctolagus cuniculus) was 0.08 µM; in assay [2] (Oryctolagus cuniculus) it was 0.03 µM. Also, the results for the inhibition in vivo at 30 mg/kg in assay [3] and in assay [4] were 27% and 100%, respectively.

`CN(C(=O)NCCCOc1ccc2nc(O)ccc2c1)[C@@H]1CCCC[C@H]1O`: the values for the IC50 in assay [1] (Oryctolagus cuniculus) and in assay [2] (Oryctolagus cuniculus) were 3.9 µM and 15 µM, respectively. For the same compound, the inhibition in vivo at 30 mg/kg in assay [3] is 10%; in assay [4], 18%.

Take `O=C(NCCCOc1ccc2nc(O)ccc2c1)N(C1CCCCC1)C1CC1`: the IC50 in assay [1] (Oryctolagus cuniculus) stood at 2.2 µM; in assay [2] (Oryctolagus cuniculus) it was 2.4 µM. In addition, the values for the inhibition in vivo at 30 mg/kg in assay [3] and in assay [4] were 15% and 100%, respectively.

On to `O=C(NCCCOc1ccc2nc(O)ccc2c1)N(C1CCCCC1)[C@H]1CCCC[C@@H]1O`, for which the IC50 in assay [1] (Oryctolagus cuniculus) came to 0.19 µM; in assay [2] (Oryctolagus cuniculus), 0.15 µM. The values for the inhibition in vivo at 30 mg/kg in assay [3] and in assay [4] were 18% and 57%, respectively.

Regarding `O=C(NCCCOc1ccc2nc(O)ccc2c1)N(C1CCCC1)[C@H]1CCCC[C@@H]1O`, the IC50 in assay [1] (Oryctolagus cuniculus) turned out to be 0.27 µM; in assay [2] (Oryctolagus cuniculus), 1.8 µM. The figures for the inhibition in vivo at 30 mg/kg in assay [3] and in assay [4] were 20% and 78%, respectively.

Consider `CN(C(=O)NCCCOc1ccc2nc(O)ccc2c1)C1CCCCC1`, for which the IC50 in assay [2] (Oryctolagus cuniculus) was found to be 2.7 µM; in assay [7] it was 2.6 µM. Also, the inhibition in vivo at 30 mg/kg in assay [3] was found to be 15%; in assay [4], 21%.

On to `O=C(NCCCOc1ccc2nc(O)ccc2c1)N(C1CC1)[C@@H]1CCCCC[C@H]1O`, for which the IC50 in assay [1] (Oryctolagus cuniculus) came to 2.6 µM; in assay [2] (Oryctolagus cuniculus) it was 2.8 µM. In addition, the inhibition in vivo at 30 mg/kg is 0% in assay [3] and 44% in assay [4].

Consider `O=C(NCCCOc1ccc2nc(O)ccc2c1)N(C1CC1)[C@H]1CC[C@H](O)CC1`, for which the IC50 in assay [1] (Oryctolagus cuniculus) worked out at 3.8 µM; in assay [2] (Oryctolagus cuniculus), 3.1 µM. Moreover, the inhibition in vivo at 30 mg/kg came to 7% in assay [3] and 0% in assay [4].

In general, Inhibition refers to the share of the control response that was lost under treatment. Lower therefore signals little suppression. `O=C(NCCCOc1ccc2[nH]c(=O)ccc2c1)N(C1CC1)[C@@H]1CCCC[C@H]1O` (stereo in doubt; 1d) [K-134]: the IC50 in assay [1] worked out at 2.5 µM; in assay [2] it was 3.1 µM. The same compound showed an Inhibition in assay [3] (route oral, 30 mg/kg) of 29%.

With `O=C(NCCCOc1ccc2[nH]c(=O)ccc2c1)N(C1CC1)[C@@H]1CCCC[C@H]1O` (stereo in doubt; 1p) [K-134], the inhibition in vivo at 10 mg/kg in assay [5] was 88%; in assay [6], 26%. Further, the results for the IC50 in assay [1] (Oryctolagus cuniculus) and in assay [2] (Oryctolagus cuniculus) were 2.3 µM and 2.2 µM, respectively. The inhibition in vivo at 30 mg/kg in assay [3] was 24%; in assay [4] it was 100%.

As for `CC(=O)Oc1ccccc1C(=O)O` [ASPIRIN], the IC50 in assay [1] (Oryctolagus cuniculus) and in assay [2] (Oryctolagus cuniculus) was more than 1000 µM in each case. For the same compound, the inhibition in vivo at 30 mg/kg was determined as 16% in assay [3] and 33% in assay [4].

`CN(C(=O)CCCOc1ccc2[nH]c(=O)ccc2c1)C1CCCCC1` [CILOSTAMIDE]: the results for the IC50 in assay [1] (Oryctolagus cuniculus) and in assay [2] (Oryctolagus cuniculus) were 2.4 µM and 2.2 µM, respectively. Also, the inhibition in vivo at 30 mg/kg in assay [3] was 42%; in assay [4] it was 84%.

With `O=C1CCc2cc(OCCCCc3nnnn3C3CCCCC3)ccc2N1` [CILOSTAZOL], the IC50 in assay [1] (Oryctolagus cuniculus) is 29 µM; in assay [2] (Oryctolagus cuniculus) it was 31 µM. The figures for the inhibition in vivo at 30 mg/kg in assay [3] and in assay [4] were 12% and 82%, respectively.

(Values after ChEMBL document CHEMBL1130834, “2(1H)-quinolinone derivatives as novel anti-arteriostenotic agents showing anti-thrombotic and anti-hyperplastic activities” (Bioorg Med Chem Lett, 1998).)
